Test results published in US20080033046A1, “Treatment of myocardial infarction with 11HSD1 inhibitors” (University of Edinburgh, priority 2004, published 2008).
Entries after “also recorded” stand apart in the source; their conditions may differ.

Columns and labels:
[1] = tested on: mouse aortic rings; experiment: Angiogenesis in mouse aortic rings embedded in Matrigel (new vessel count); format: cell-based; settings: for effect on the angiostatic effect of corticosterone / direct effect on angiogenesis in aortic rings (drug alone): drug 10^−6 M; for effect on the angiostatic effect of corticosterone: corticosterone 600 nM; for direct effect on angiogenesis in aortic rings (drug alone): no glucocorticoid
Experimental: Mice were killed humanely and thoracic aortae were removed, washed in serum free MCDB 131 medium (Invitrogen, UK), cleaned of periadventitial tissue and divided into 1-3 mm rings.
To quantify angiogenesis aortic rings were embedded in 200 μl of steroid free Matrigel (Becton Dickinson, UK) and incubated at 37° C. in serum free MCDB 131, with heparin, ascorbic acid, and GA1000 (Cambrex Biosciences, UK) in the presence and absence of: corticosterone (3 nM, 30 nM, 300 nM, 600 nM); 11-dehydrocorticosterone (300 nM, 60 nM); the glucocorticoid receptor antagonist, RU38486 (10^−6M)^59, the mineralocorticoid receptor antagonist, spironolactone (10^−6 M)^60; and/or the […] 11βHSD inhibitor, carbenoxolone (10^−4-10^−6M)^31. All drugs (Sigma-Aldrich, UK) were dissolved in ethanol and diluted in aqueous solution; final ethanol concentration 1-3% v/v. Media were changed every 48 hours. Experiments were performed in triplicate. In initial experiments, new vessels were counted daily using light microscopy (FIG. 1). From these studies day 7 was selected as the appropriate time point to examine the effects of glucocorticoids (FIG. 1c).
To confirm the nature of apparent new vessels, endothelial cells were identified by uptake of fluorescent-labelled acetylated low-density lipoprotein (DiI-Ac-LDL)(Biogenesis, Dorset UK) FIG. 1b).

[2] = tested on: subcutaneous sponge implants in mice; experiment: Subcutaneous sponge implant assay (vessel density, Chalkley counts); format: in vivo, mouse; settings: 20 days; for effect of steroid-impregnated sponge on angiogenesis in vivo: 2 mg steroid in silastic insert
Experimental: (§1) Mice were anaesthetized with halothane and a sterilised sponge cylinder (0.5 cm×1 cm) (Caligen-Foam Ltd., UK) was implanted subcutaneously on each flank. Sponges contained a silastic insert (Silastic 20 medical grade, Dow Corning Corporation, USA) impregnated with vehicle, 2 mg of cortisol or cortisone, or 5 mg of RU38486. […] Such inserts release their impregnated compounds in vivo at a constant rate for 3 weeks. Human steroids (cortisol and cortisone, equivalent to corticosterone and 11-dehydrocorticosterone) were used to allow distinction from endogenous steroids. In separate experiments (not shown) angiogenesis in placebo-impregnated sponges was not altered by the presence or absence of a contralateral steroid-treated sponge.
(§2) Twenty days following implantation, mice were decapitated, sponges excised and inserts removed. Sponges were bisected; one half was fixed in 10% formalin and embedded in paraffin wax. Sections (8 μm) were stained with haematoxylin and eosin (H&E). The second half of the sponge was weighed, homogenised in 2 ml sterile phosphate buffered saline at 4° C. and centrifuged (2000 g; 30 minutes). Steroids were extracted from the supernatant using ethyl acetate and cortisol quantified using a specific radioimmunoassay (Amersham Pharmacia Biotech, UK). Sponge vessel density was determined by using the mean of triplicate Chalkley counts on 2 sections per sponge.

[3] = tested on: mouse aortic rings; experiment: Angiogenesis in mouse aortic rings embedded in Matrigel (new vessel count); format: cell-based; settings: wild type rings, drug 10^−6 M, 11-dehydrocorticosterone 600 nM
[4] = in vivo; settings: mouse; for concentration at 20 days: Cortisol level
Experimental: as §1, §2

[5] = aortic rings from 11βHSD-1 −/− mice, glucocorticoid 600 nM, compared with wild type
[6] = wild type C57B16 aortic rings, 7-day incubation, physiological concentrations (up to 600 nM)
[7] = wild type rings, listed as Carbenoxolone

## CC#C[C@]1(O)CC[C@H]2[C@@H]3CCC4=CC(=O)CCC4=C3[C@@H](c3ccc(N(C)C)cc3)C[C@@]21C [RU38486]
[1]; wild type rings
  effect on the angiostatic effect of corticosterone: prevented
  direct effect on angiogenesis in aortic rings (drug alone): did not affect; also recorded: no effect
[2]; wild type C57B16 mice, 5 mg in silastic insert
  new vessel formation in RU38486 impregnated sponges versus contralateral controls: increased; also recorded: greater
[3]
  effect on the angiostatic effect of 11-dehydrocorticosterone: prevented

## C[C@]12C[C@H](O)[C@H]3[C@@H](CCC4=CC(=O)CC[C@@]43C)[C@@H]1CC[C@@H]2C(=O)CO [corticosterone]
[1]; [5]
  effect of glucocorticoid on angiogenesis in aortic rings: inhibited to a similar degree; also recorded: not different between strains
[1]; [6]
  effect of glucocorticoid on angiogenesis in aortic rings: inhibited angiogenesis

## CC(=O)S[C@@H]1CC2=CC(=O)CC[C@]2(C)[C@H]2CC[C@@]3(C)[C@@H](CC[C@@]34CCC(=O)O4)[C@H]12 [spironolactone]
[1]; wild type rings
  effect on the angiostatic effect of corticosterone: no effect
  direct effect on angiogenesis in aortic rings (drug alone): no effect
[3]
  effect on the angiostatic effect of 11-dehydrocorticosterone: no effect

## CC1(C)[C@@H](OC(=O)CCC(=O)O)CC[C@]2(C)[C@H]3C(=O)C=C4[C@@H]5C[C@@](C)(C(=O)O)CC[C@]5(C)CC[C@@]4(C)[C@]3(C)CC[C@@H]12 [carbenoxolone]
[1]; wild type rings, 10^−4 M
  effect on angiogenesis in aortic rings at high concentration: abolished angiogenesis
[1]; wild type rings
  effect on the angiostatic effect of corticosterone: did not potentiate; also recorded: did not influence
  direct effect on angiogenesis in aortic rings (drug alone): no direct effect
[1]; [7]
  effect on the angiostatic effect of corticosterone: no effect
  direct effect on angiogenesis in aortic rings (drug alone): no effect
[3]
  effect on the angiostatic effect of 11-dehydrocorticosterone: prevented

## C[C@]12CCC(=O)C=C1CC[C@@H]1[C@@H]2C(=O)C[C@@]2(C)[C@H]1CC[C@]2(O)C(=O)CO [cortisone]
[2]; 11βHSD-1 −/− mice
  effect of steroid-impregnated sponge on angiogenesis in vivo: did not inhibit angiogenesis; also recorded: only in wild type mice
[2]; wild type C57B16 mice
  effect of steroid-impregnated sponge on angiogenesis in vivo: inhibited angiogenesis
[4]
  sponge cortisol concentrations after impregnation with cortisone compared with cortisol, in words: lower
  sponge cortisol concentrations, in words: did not elevate

## C[C@]12CC(=O)[C@H]3[C@@H](CCC4=CC(=O)CC[C@@]43C)[C@@H]1CC[C@@H]2C(=O)CO [11-dehydrocorticosterone]
[1]; [5]
  effect of glucocorticoid on angiogenesis in aortic rings: did not inhibit angiogenesis
[1]; [6]
  effect of glucocorticoid on angiogenesis in aortic rings: inhibited angiogenesis; also recorded: angiostatic effect

## C[C@]12CCC(=O)C=C1CC[C@@H]1[C@@H]2[C@@H](O)C[C@@]2(C)[C@H]1CC[C@]2(O)C(=O)CO [cortisol]
[2]; 11βHSD-1 −/− mice
  effect of steroid-impregnated sponge on angiogenesis in vivo: inhibited angiogenesis to a similar degree
[2]; 11βHSD-1 −/− mice, listed as Cortisol
  effect of steroid-impregnated sponge on angiogenesis in vivo: inhibited angiogenesis
[2]; wild type C57B16 mice
  effect of steroid-impregnated sponge on angiogenesis in vivo: inhibited angiogenesis
[4]; 11bHSD-1 −/−, contralateral placebo treated sponge
  concentration at 20 days: 135 ± 46 ng/g
[4]; 11bHSD-1 −/−, ipsilateral steroid treated sponge
  concentration at 20 days: 3780 ± 1700 ng/g
[4]
  sponge cortisol concentrations, in words: similar
[4]; wild type, contralateral placebo treated sponge
  concentration at 20 days: 161 ± 18 ng/g
[4]; wild type, ipsilateral steroid treated sponge
  concentration at 20 days: 4270 ± 186 ng/g
